Test results taken from patent US6518302B1, “Remedies” (Takara Shuzo Co., Ltd., priority 1999, dated 2003).
pIC50: −log10 of the molar value. Read-outs that look alike come from different tables or passages of the source.

Experiments:
[1] = test system: heme oxygenase 1 protein in RAW264.7 cells; experiment: Heme oxygenase 1 induction (Western blot); format: cell-based; set-up: key: − represents no band observed; increase in the intensity of the band is represented as follows: +−<+<++; increase in the intensity of the band is represented as follows: +−<+<++; increase in the intensity of the band is represented as follows: +−<+<++; details: 12 hours, positive control: 5 μl of 3 mM solution in dimethyl sulfoxide added to 5 ml
Experimental: RAW264.7 cells (ATCC TIB 71) were suspended in Dulbecco's modified Eagle's medium (Bio Whittaker, 12-604F) containing 10% fetal calf serum (Gibco) at a concentration of 3×10^5 cells/ml. 5 ml of the suspension was added to each well of a 6-well microtiter plate and the plate was incubated at 37° C. overnight in the presence of 5% CO2. 50 μl of a solution containing the compound (11) or the compound (14) at a concentration of 10 mM or 5 mM in water, 5 μl of a solution containing the compound (7) at a concentration of 50 mM or 25 mM in dimethyl sulfoxide, or 5 μl of a solution containing the compound (17) at a concentration of 100 mM or 50 mM in dimethyl sulfoxide was added to the well. The plate was incubated for 12 hours. A positive control for heme oxygenase 1 induction in which 5 μl of 3 mM solution of 15-deoxy-Δ12,14 prostaglandin J2 (Cayman Chemical, 18570) in dimethyl sulfoxide was added, and a negative control in which water was added were provided. The cells were recovered by detaching the cells from the plate using a scraper and suspended in 0.1 M tris-HCl buffer (pH 7.5) containing 0.05 mM pepstatin A (Sigma, P5318), 0.2 mM leupeptin (Sigma, L2884), 1 mM phenylmethylsulfonyl fluoride (Nacalai Tesque, 273-27), 10 mM ethylenediaminetetraacetic acid disodium salt and 0.1% Triton X-100. A supernatant obtained by centrifuging the suspension after freezing and thawing was used as a protein fraction. The content of protein in the protein fraction was determined using Micro BCA Protein Assay Reagent (a product of Pierce sold by Takara Shuzo, P7411). A sample from the protein fraction prepared as described above was mixed with an equal volume of 0.125 M tris-hydrochloride buffer (pH 6.8) containing 4% sodium lauryl sulfate (SDS), 2% 2-mercaptoethanol, 0.001% Bromophenol Blue and 20% glycerol. After treatment at 100° C. for 5 minutes, a portion corresponding to 10 μg of protein was loaded on 12.5% SDS-polyacrylamide gel and electrophoresed at a constant current of 20 mA. After electrophoresis, the gel was transferred to a PVDF membrane (Millipore, IPVH000 10) at a constant voltage of 15 V for 25 minutes using a blotting buffer (containing 48 mM tris, 39 mM glycine, 20% methanol and 0.0375% SDS) and Trans-Blot SD Cell Semi-Dry blotting apparatus (Bio-Rad) according to the attached protocol. After transferring, the PVDF membrane was blocked in a solution of Block Ace (Dainippon Pharmaceutical, UK-B25) at 4 C overnight. After blocking, the membrane washed three times in phosphate buffered saline containing 0.1% Tween 20 for 15 minutes with gentle shaking. The membrane was reacted in phosphate buffered saline containing 10% Block Ace, 0.1% Tween 20 and 200 ng/ml of anti-heme oxygenase 1 antibody (N-19; Santa Cruz, sc-7696) at room temperature for 1 hour with gentle shaking, and then washed three times in phosphate buffered saline containing 0.1% Tween 20 for 15 minutes with gentle shaking. The membrane was reacted in phosphate buffered saline containing 10% Block Ace, 0.1% Tween 20 and 0.1% peroxidase-labeled rabbit anti-goat IgG (H+L) antibody (Zymed, 61-1620) at room temperature for 1 hour with gentle shaking, and then washed five times in phosphate buffered saline containing 0.1% Tween 20 for 15 minutes with gentle shaking. The PVDF membrane was stained using Western Blot Chemiluminescence Reagent Plus (a product of NEN Life Science Products sold by Daiichi Pure Chemicals, NEL103) according to the attached protocol and exposed to an X-ray film (Kodak, CAT165 1454). After exposure, the film was developed using FPM800 (Fuji Film).
The intensity of the band depended on the concentration of the sample. In the table, the intensity of the band for heme oxygenase 1 protein is expressed by the mark +. Specifically, − represents no band observed, and increase in the intensity of the band is represented as follows: +−<+<++.

[2] = test system: HL-60 (ATCC CCL-240) cells; experiment: Viability of HL-60 cells by Trypan Blue staining; format: cell-based; details: Homo sapiens, read-out: Viability50, concentration that results in a viability of 50%
Experimental: HL-60 (ATCC CCL-240) cells were cultured at 37° C. in RPMI 1640 medium (Bio Whittaker) containing 10% fetal calf serum (JRH) which had been treated at 56° C. for 30 minutes and suspended in RPMI 1640 medium at a concentration of 2.5×10^5 cells/4.5 ml.
[…] each of aqueous solutions of the compound (2) at a concentration of 10, 50 or 100 mM, the compound (7) at a concentration of 500, 1000 or 1500 μM, the compound (9) at a concentration of 750, 1500 or 3000 μM, the compound (11) at a concentration of 750, 1500 or 3000 μM, or the compound (14) at a concentration of 750, 1500 or 3000 μM was added to 4.5 ml of the suspension. The mixtures were incubated at 37° C. for 24 hours in the presence of 5% CO2.
A portion of the cells cultured for 24 or 48 hours as described in Example 4 was stained with 0.4% Trypan Blue and examined under an optical microscope. The number of viable cells which were not stained and the number of dead cells which were stained blue were counted. The concentration of each of the compounds (2), (7), (9), (11) and (14) that results in a viability of 50% (Viability50 mM) was determined.

[3] = test system: Human promyelocytic leukemia HL-60 cells; experiment: Antiproliferation activity against HL-60 cells (MTT method); format: cell-based; details: 48 hour incubation
Experimental: Human promyelocytic leukemia HL-60 cells (ATCC CCL-240) were cultured at 37° C. in RPMI 1640 medium (Gibco) containing 10% of fetal calf serum (JRH Bioscience) which had been treated at 56° C. for 30 minutes, and suspended in the same medium at a concentration of 5000 cells/90 μl. Each 90 μl portion of the suspension was distributed into each well of a 96-well plate (Falcon). To the suspension in each well was added 10 μl of one the following samples, and incubated at 37° C. in the presence of 5% CO2. The samples were 2-, 4-, 8-, 16-, 32-, 64- or 128-dilutions of filter-sterilized 200 mM aqueous solution of the compound (2) obtained in Example 1, 50 mM aqueous solution of the compound (7), 50 mM aqueous solution of the compound (9), 100 mM aqueous solution of the compound (11), 100 mM aqueous solution of the compound (14), 20 mM aqueous solution of the compound (17), 12.5 mM aqueous solution of the compound (19) or 12.5 mM aqueous solution of the compound (21) with sterile water, as well as water. After 48 hour from the initiation of the incubation, the numbers of viable cells calculated based on the absorbance measured according to the MTT method as described in “Apoptosis Jikken Protocol” (Syuzyun-sha, Seiichi Tanuma, ed., pp. 156 (1994)) were compared each other.

[4] = test system: HL-60 cells (ATCC CCL-240); experiment: Proliferation of HL-60 cells with or without hydroxyurea G1 arrest (WST-1); format: cell-based, Human; details: 48 hours
Experimental: HL-60 cells (ATCC CCL-240) were suspended in RPMI 1640 medium (Bio Whittaker, 12-702F) containing 10% fetal calf serum (Gibco) and 100 μM hydroxyurea at a concentration of 5×10^5 cells/ml. 20 ml of the suspension was added to a 10-cm Petri dish. The dish was incubated at 37° C. overnight in the presence of 5% CO2 to make the cells arrest at G1 phase. The cells were collected by centrifugation and resuspended in RPMI 1640 medium containing 10% fetal calf serum (Gibco) and 100 μM hydroxyurea at a concentration of 5×10^5 cells/ml. 5 ml of the suspension was added to each well of a 6-well microtiter plate. On the other hand, as cells without the treatment with hydroxyurea, HL-60 cells were suspended in RPMI 1640 medium containing 10% fetal calf serum (Gibco) at a concentration of 1×10^5 cells/ml. 5 ml of the suspension was added to each well of a 6-well microtiter plate. 50 μl of a solution containing DGE at a concentration of 30, 22.5, 15 or 7.5 mM in water, 25 μl of a solution containing the compound (7) at a concentration of 60, 45, 30 or 15 mM in dimethyl sulfoxide, or 25 μl of a solution containing the compound (17) at a concentration of 100, 75, 50 or 25 mM in dimethyl sulfoxide was added to the well containing the cells treated with hydroxyurea. 50 μl of a solution containing DGE at a concentration of 8, 6, 4 or 2 mM in water, 25 μl of a solution containing the compound (7) at a concentration of 30, 22.5, 15 or 7.5 mM in dimethyl sulfoxide, or 25 μl of a solution containing the compound (17) at a concentration of 80, 60, 40 or 20 mM in dimethyl sulfoxide was added to the well containing the cells without the treatment with hydroxyurea. The plate was incubated for additional 48 hours. Cells collected by centrifuging the culture were suspended in 5 ml of fresh RPMI 1640 medium containing 10% fetal calf serum (Gibco). 100 μl of the suspension was used for measuring viable cell number using Premix WST-1 Cell Proliferation Assay System (Takara Shuzo, MK400).
For each of the samples, the concentration at which 50% of the proliferation is inhibited (IC50) for the cells treated with hydroxyurea was higher than that for the cells without the treatment with hydroxyurea. Table 3 summarizes IC50 (μM) for each of the samples. […] Since most of cells in a living body are arrested at G1 phase, it is considered that DGE and R-AhGal compounds (precursors of DGE) are agents less toxic to a living body.

`CCCCC/C=C/C=C1/C(=O)C=C[C@@H]1C/C=C\CCCC(=O)O` [15-deoxy-Δ12,14 prostaglandin J2, reference compound] was tested, and the “Intensity of band for heme oxygenase 1 protein” value [1] was “+”.
In the case of `CC(=O)OCC1OC(OC2C(O)COC2C(O)C(O)O)C(OC(C)=O)C(OC(C)=O)C1OC(C)=O` [Compound (9), 4-O-(β-D-2,3,4,6-tetra-O-acetylgalactopyranosyl)-3,6-anhydro-D-galactose], the pIC50 ([2]; 24 hours) was 1.76, the pIC50 ([2]; 48 hours) was 3.72 and the “antiproliferation activity against HL-60 cells” value [3] was “exhibited antiproliferation activities”. It also gave a pIC50 ([3]; Homo sapiens, HL-60 cells, read-out: IC50, concentration at which 50% of the proliferation is inhibited) of 3.95.
`O=C1C=CC(CO)OC1O` [DGE, L-glycero-1,5-epoxy-1αβ,6-dihydroxy-cis-hex-3-en-2-one, reference compound] was tested, and the pIC50 ([4]; HL-60 cells arrested at G1 phase with 100 μM hydroxyurea, read-out: IC50, Cells treated with hydroxyurea) was 3.99 and the pIC50 ([4]; HL-60 cells, read-out: IC50, Cells without treatment with hydroxyurea) was 4.31.
